From patent US20250340568A1, “SOLID FORMS OF A MACROCYCLIC COMPOUNDS AS CFTR MODULATORS AND THEIR PREPARATION” (Vertex Pharmaceuticals Incorporated, priority 2022, published 2025)

Molecular target: T1, CFTR (F508del/MF-HBE cells) (Homo sapiens, UniProt P13569, DEL508-508)
T1 construct: human bronchial epithelial (HBE) cells derived from CF subjects heterozygous for F508del and a minimal function CFTR mutation; endogenous in cells; host or cells: primary human bronchial epithelial cells from CF subjects (F508del/MF genotype), differentiated at air-liquid interface
T1 sequence (P13569 with tags, fused parts or gaps DEL508-508): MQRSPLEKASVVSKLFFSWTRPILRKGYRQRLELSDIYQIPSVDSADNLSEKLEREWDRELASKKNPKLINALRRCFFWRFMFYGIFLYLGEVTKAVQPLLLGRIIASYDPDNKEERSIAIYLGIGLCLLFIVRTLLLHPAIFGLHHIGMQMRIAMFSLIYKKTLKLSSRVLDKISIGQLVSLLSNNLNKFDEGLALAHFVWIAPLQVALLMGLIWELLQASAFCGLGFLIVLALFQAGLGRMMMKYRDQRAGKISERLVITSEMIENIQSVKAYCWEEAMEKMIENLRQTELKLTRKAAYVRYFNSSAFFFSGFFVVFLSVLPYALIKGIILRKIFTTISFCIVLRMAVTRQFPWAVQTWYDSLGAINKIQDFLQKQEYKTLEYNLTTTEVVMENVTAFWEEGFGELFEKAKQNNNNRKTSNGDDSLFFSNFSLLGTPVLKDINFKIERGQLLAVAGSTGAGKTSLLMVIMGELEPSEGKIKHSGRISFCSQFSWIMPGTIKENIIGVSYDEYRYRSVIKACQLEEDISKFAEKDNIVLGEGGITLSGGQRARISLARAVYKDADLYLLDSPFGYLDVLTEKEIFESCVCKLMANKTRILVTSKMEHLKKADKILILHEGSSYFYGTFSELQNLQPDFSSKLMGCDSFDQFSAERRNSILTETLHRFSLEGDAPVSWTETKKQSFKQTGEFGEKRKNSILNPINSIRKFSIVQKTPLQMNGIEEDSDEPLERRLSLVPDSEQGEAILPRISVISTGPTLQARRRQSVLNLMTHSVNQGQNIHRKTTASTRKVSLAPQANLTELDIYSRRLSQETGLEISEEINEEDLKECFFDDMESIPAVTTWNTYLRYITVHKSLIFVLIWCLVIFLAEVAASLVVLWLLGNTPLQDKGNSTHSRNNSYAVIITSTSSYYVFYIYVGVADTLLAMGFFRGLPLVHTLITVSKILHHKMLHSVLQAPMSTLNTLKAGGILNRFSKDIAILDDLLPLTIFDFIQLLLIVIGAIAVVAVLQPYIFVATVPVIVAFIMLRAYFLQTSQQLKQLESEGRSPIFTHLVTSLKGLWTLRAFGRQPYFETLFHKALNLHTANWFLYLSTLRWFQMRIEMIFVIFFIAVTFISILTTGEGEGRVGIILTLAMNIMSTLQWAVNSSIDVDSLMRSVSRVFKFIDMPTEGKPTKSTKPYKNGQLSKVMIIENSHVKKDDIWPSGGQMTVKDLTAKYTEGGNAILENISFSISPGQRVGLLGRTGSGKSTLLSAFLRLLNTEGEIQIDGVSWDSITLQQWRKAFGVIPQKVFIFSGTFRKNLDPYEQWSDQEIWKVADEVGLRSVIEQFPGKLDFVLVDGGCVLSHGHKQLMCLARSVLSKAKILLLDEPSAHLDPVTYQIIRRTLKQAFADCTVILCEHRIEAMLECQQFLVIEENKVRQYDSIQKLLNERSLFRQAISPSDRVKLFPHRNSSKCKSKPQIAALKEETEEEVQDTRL
Test: Ussing chamber assay of CFTR-mediated short-circuit currents (potentiator identification)
Type: cell-based
Conditions: incubated 18-24 hours at 37° C. with 10 μM (14S)-8-[3-(2-{dispiro[2.0.2.1]heptan-7-yl}ethoxy)-1H-pyrazol-1-yl]-... trione (Compound VII), 20% human serum, read-out: CFTR-modulating activity EC50
Protocol: Ussing Chamber Assay of CFTR-mediated short-circuit currents
Ussing chamber experiments were performed using human bronchial epithelial (HBE) cells derived from CF subjects heterozygous for F508del and a minimal function CFTR mutation (F508del/MF-HBE) and cultured as previously described (Neuberger T, Burton B, Clark H, Van Goor F Methods Mol Biol 2011:741:39-54). After four days the apical media was removed, and the cells were grown at an air liquid interface for >14 days prior to use.
To isolate the CFTR-mediated short-circuit (ISC) current, F508del/MF-HBE grown on Costar® Snapwell™ cell culture inserts were mounted in an Ussing chamber and the transepithelial ISC was measured under voltage-clamp recording conditions (Vhold=0 mV) at 37° C. The basolateral solution contained (in mM) 145 NaCl, 0.83 K2HPO4, 3.3 KH2PO4, 1.2 MgCl2, 1.2 CaCl2), 10 Glucose, 10 HEPES (pH adjusted to 7.4 with NaOH) and the apical solution contained (in mM) 145 NaGluconate, 1.2 MgCl2, 1.2 CaCl2), 10 glucose, 10 HEPES (pH adjusted to 7.4 with NaOH) and 30 μM amiloride to block the epithelial sodium channel. […] The CFTR-mediated ISC (μA/cm^2) for each condition was determined from the peak forskolin response to the steady-state current following inhibition.
The activity of the CFTR potentiator compounds on the CFTR-mediated ISC was determined in Ussing chamber studies as described above. […]

EC50: < 500 nM
Compound: CC1(C)CCCCC[C@](O)(C(F)(F)F)C2=NN=C(O2)c2nc(c(C(F)(F)F)cc2N)N1 [Compound I, (6R)-17-amino-12,12-dimethyl-6,15-bis(trifluoromethyl)-19-oxa-3,4,13,18-tetrazatricyclo[12.3.1.12,5]nonadeca-1(18),2,4,14,16-pentaen-6-ol]
